Experimental data: PubChem BioAssay AID1249 (Columbia University Molecular Screening Center, 2008)
Activity calls are given as the source filed them. No rule for the calls is given here.

Assay: cellular cytoskeleton assembly phenotype modulators – imaging, high-content imaging, retest and dose response, confirmation (AID 1249);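 also: compound exposure lasted 24 h before fixation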;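 as to inhibition: plate controls were untreated cells for no effect and reference compound treated cells for full effect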
Details: cell-based imaging, cytoskeleton assembly phenotype, high content; at 2 µM; stronger effect = higher value
With `COc1ccc(CSc2nc3ccccc3[nH]2)cc1` the inhibition was 9.9% (inactive). In the case of `COCCNC(=O)C(c1cccs1)N(Cc1cccs1)C(=O)Cn1nnc2ccccc21` (configuration not stated), the inhibition is reported as -4.6% (inactive). For `Nc1ccc2nc(-c3ccc(N)c(Cl)c3)[nH]c2c1`, the inhibition was 11.4% (inactive). In the case of `CC1C(c2ccccc2)C(C#N)(C#N)C2(C#N)C(=O)NC1(N)C2C` (configuration not stated), the inhibition is reported as 0.4% (inactive). For `O=C(/C(=C/c1ccc(Cl)cc1)c1nc2ccccc2[nH]1)c1cccs1`, the inhibition was -2.9% (inactive). With `O=C(Nc1ccccc1)/C(=C\c1ccc2c(c1)OCO2)NC(=O)c1ccco1` the inhibition was -0.8% (inactive). In the case of `Cc1nc2sc(C(c3ccc(Cl)cc3)N3CC(C)OC(C)C3)c(O)n2n1` (configuration not stated), the inhibition is reported as -4.4% (inactive). With `O=C(CS(=O)(=O)c1cn(Cc2cccc(F)c2)c2ccccc12)N1CCCCC1` the inhibition was -1.5% (inactive). For `Cc1ccc(CSc2nc3ccccc3cc2C=O)cc1`, the inhibition was -4% (inactive). In the case of `CCOC(=O)c1cc2c(ccn2C)n1Cc1ccccc1C`, the inhibition is reported as 2.4% (inactive). With `O=C(O)c1ccc(CNCc2ccccc2Cl)cc1` the inhibition was 21.6% (inactive). In the case of `N#Cc1c(NCc2ccccc2)ccnc1NCc1cccnc1`, the inhibition is reported as 1.2% (inactive). For `CC(C)Sc1nc2c(c(=O)n1-c1ccc(F)cc1)SCC2`, the inhibition was -6.3% (inactive). For `COc1ccccc1-n1cnc2cc(C(=O)NCC3CCCO3)ccc21` (configuration not stated), the inhibition was 13.3% (inactive). For `CC(/C=C/c1ccco1)=N\NC(=O)c1cc(C)[nH]n1`, the inhibition was -14.4% (inactive). For `Cc1cc(C)n(-c2nc3ccccc3nc2N2CCN(C(=O)c3ccc(Cl)cc3)CC2)n1`, the inhibition was -2.4% (inactive). In the case of `Cc1cc(C(=O)NN=C2C3CC4CC(C3)CC2C4)c2ccccc2n1`, the inhibition is reported as -3.8% (inactive). In the case of `CCOc1ccc2[nH]c(=O)c(CN(Cc3ccccc3)C(=O)N3CCCC3)cc2c1`, the inhibition is reported as 12.4% (inactive). For `CCC(=O)Nc1nc(-c2ccccc2)ns1`, the inhibition was -1.3% (inactive). In the case of `CCOC(=O)C1=C(CSc2nc3c(cc2C#N)CN(C)CC3)OC(N)=C(C#N)C1c1ccccc1` (configuration not stated), the inhibition is reported as 1.4% (inactive). With `COc1ccccc1-c1cn(S(=O)(=O)c2ccc(C)cc2)nc1N` the inhibition was 7.9% (inactive). In the case of `CCN(CC)C(=O)CN(c1ccc(Cl)cc1)S(=O)(=O)c1ccccc1`, the inhibition is reported as 0.4% (inactive). For `Cc1ccc(C)c(NC(=S)NC(NC(=O)Cc2cccc3ccccc23)C(Cl)(Cl)Cl)c1` (configuration not stated), the inhibition was -16% (inactive). For `CCOc1cc(-c2conc2N)cc(OCC)c1OCC`, the inhibition was 10.2% (inactive). For `CCOc1ccc(-n2cc(C(=O)NCc3ccco3)c3cc(OC)c(OC)cc3c2=O)cc1`, the inhibition was -5.9% (inactive). With `COc1ccc(OC)c2sc(NC(=O)CCS(=O)(=O)c3ccccc3)nc12` the inhibition was -5.2% (inactive). In the case of `O=C(Cn1cccc1C(=O)c1ccccc1)NCCN1CCOCC1`, the inhibition is reported as -4.4% (inactive). With `CCOC(=O)N1CCC(NC(=O)c2ccc(CS(=O)(=O)c3ccc(OC)cc3)o2)CC1` the inhibition was -7.4% (inactive). For `CCOC1=NC(C(=O)O)c2ccccc2/C(=C(/C)Cl)N1` (configuration not stated), the inhibition was -4.3% (inactive). With `Cc1cc(NC(=O)CSc2nc3ccccc3c(=O)n2C2CCCC2)no1` the inhibition was 6.7% (inactive). For `O=C(Nc1cnccn1)C1c2ccccc2Oc2ccccc21`, the inhibition was 9.9% (inactive). For `NC(=O)COC(=O)CCCc1c[nH]c2ccccc12`, the inhibition was 2.3% (inactive). In the case of `COc1cccc(CNC(=O)C(=O)NCC2CCCO2)c1` (configuration not stated), the inhibition is reported as -16.1% (inactive). In the case of `Cc1cc(C)cc(OCCCCCNCCO)c1`, the inhibition is reported as -6.8% (inactive). In the case of `Cc1cc(C)cc(OCc2nnc(SCC(=O)N3CCN(c4ccccc4)CC3)o2)c1`, the inhibition is reported as -9.6% (inactive). In the case of `Cc1cccc(OCCN2CSC(=S)N(C)C2)c1`, the inhibition is reported as 2.2% (inactive). For `CCN1C(=O)c2cccc3c(S(=O)(=O)NCc4ccccn4)ccc1c23`, the inhibition was -20.8% (inactive). In the case of `Cn1nc(C(=O)NCC2CCCO2)c2ccccc2c1=O` (configuration not stated), the inhibition is reported as 0% (inactive). For `CCOC(=O)c1cnn(-c2nc(-c3ccc(C)cc3)cs2)c1C(F)(F)F`, the inhibition was -7.1% (inactive). With `CCCCn1cnc2c1c(=O)[nH]c(=O)n2CCCC` the inhibition was -11.3% (inactive). In the case of `Cc1cccc(NC(=O)CN2NS(=O)(=O)c3ccccc3C2=O)c1`, the inhibition is reported as -4.6% (inactive). For `Cc1cc(S(=O)(=O)NCCN2CCOCC2)c(C)s1`, the inhibition was 4.3% (inactive). In the case of `CCC(C)[C@@H](NC(=O)OC(C)(C)C)c1nnc(S(=O)(=O)Cc2cccc(C)c2)o1` (some centres not stated), the inhibition is reported as 1.2% (inactive). For `Cc1nc(SCc2ccc(Br)cc2)[nH]c(=O)c1C`, the inhibition was -1.2% (inactive). With `CCOC(=O)c1c(C)c(C(=O)O)n(C)c1C` the inhibition was -14.7% (inactive). With `CN(CC(=O)NCc1ccncc1)S(=O)(=O)c1ccc(F)cc1` the inhibition was 2.2% (inactive). With `O=C1CCCc2c1[nH]c1ccc(Cl)cc21` the inhibition was -17.2% (inactive). In the case of `COc1ccc(C(=O)c2c(C(F)(F)F)oc3c2C(=O)c2ccccc2C3=O)cc1`, the inhibition is reported as -14.9% (inactive). With `O=C1c2oc3ccccc3c(=O)c2C(c2cccc(F)c2)N1CCCO` (configuration not stated) the inhibition was 6.3% (inactive). With `O=C(CCN1C(=O)C2C3C=CC(C3)C2C1=O)NCC1CCCO1` (configuration not stated) the inhibition was 9.9% (inactive). In the case of `COc1cc2[nH]cc(C(=O)NCCc3ccccc3)c(=O)c2cc1OC`, the inhibition is reported as 1.5% (inactive). With `Cc1ccccc1CN1C(=O)C2(OCCCO2)c2ccccc21` the inhibition was 3.7% (inactive). In the case of `CCOC(=O)c1cnn(-c2nc3c(C)cccc3s2)c1C`, the inhibition is reported as -1.2% (inactive). In the case of `COc1ccc(-c2nnc(SCC(=O)N3CCCc4ccccc43)o2)cc1OC`, the inhibition is reported as -16.4% (inactive). In the case of `CCOc1cc(NC(=O)c2ccco2)c(OCC)cc1NC(=O)CCC(=O)NCc1cccnc1`, the inhibition is reported as 5.4% (inactive). For `O=S(=O)(c1ccc2c(c1)OCCCO2)N1CCNCC1`, the inhibition was 0.7% (inactive). In the case of `O=C(O)c1cccc(S(=O)(=O)Nc2ccccc2Cl)c1`, the inhibition is reported as -2.5% (inactive). For `NC1=CC(=O)c2cccc3cccc1c23`, the inhibition was -0.4% (inactive). With `COc1ccc(O)c(C=Nc2cc(C)on2)c1` the inhibition was -0.2% (inactive). With `COC(=O)c1sccc1NC(=O)c1ccc(Br)s1` the inhibition was 1.8% (inactive). With `O=C(O)c1c[nH]c2ccc(S(=O)(=O)N3CCOCC3)cc12` the inhibition was -7.4% (inactive). In the case of `Cc1cc(C)cc(-n2nnnc2SCC(=O)Nc2nc(-c3ccc(Cl)cc3)cs2)c1`, the inhibition is reported as -9.2% (inactive). With `O=C(Nc1cccnc1)c1coc(=O)c2ccccc12` the inhibition was 8% (inactive). With `O=C1c2cccc3c([N+](=O)[O-])ccc(c23)C(=O)N1c1ccc(Cl)cn1` the inhibition was -13.4% (inactive). For `Cc1cccnc1Nc1nc(-c2ccccn2)cs1`, the inhibition was -5.7% (inactive). In the case of `CCOc1ccc(C=O)cc1CN1CCCCC1`, the inhibition is reported as -10% (inactive). In the case of `O=C1OCC(CO)(CO)N=C1NNc1ccccc1Cl`, the inhibition is reported as 19.6% (inactive). In the case of `Oc1ccc(Nc2nc3ccccc3nc2Nc2ccc(O)cc2)cc1`, the inhibition is reported as -1.9% (inactive). With `N/C(Cc1cccs1)=N\OC(=O)COc1ccc(Br)cc1Cl` the inhibition was -3.7% (inactive). For `CC1CCN(C(=O)C2c3ccccc3C(=O)N3CCc4ccccc4C23)CC1` (configuration not stated), the inhibition was -3.8% (inactive). With `COc1ccc(Cn2c(CCC(=O)O)nc3cccnc32)cc1` the inhibition was -3% (inactive). With `Cc1ccc(CC2S/C(=C(/C#N)C(=O)NCc3ccco3)N(c3ccccc3)C2=O)cc1` (configuration not stated) the inhibition was 2.8% (inactive). In the case of `COc1ccc(S(=O)(=O)n2ccc(-c3ccc(OCCN(C)c4ccccn4)cc3)n2)cc1`, the inhibition is reported as 11.9% (inactive). In the case of `CCNC(=O)CCn1nc(-c2ccc(Cl)cc2)c2ccccc2c1=O`, the inhibition is reported as -0.2% (inactive). With `Cc1cc(C)c(/C=N/NC(N)=O)c(C)c1/C=N/NC(N)=O` the inhibition was -10% (inactive). With `NCCN1CCN(CCN)CC1` the inhibition was -3% (inactive). With `CCc1nc2oc3ccccc3c(=O)c2c(=O)n1CCOC` the inhibition was 1.7% (inactive). For `O=C(O)C1CCC(N2C(=O)C3CCCCC3C2=O)CC1` (configuration not stated), the inhibition was -0.4% (inactive). For `CSC1=NCCN1C(=O)Cc1ccc(Cl)cc1`, the inhibition was 3% (inactive). With `CCOc1cc(C(=O)Nc2cccc3ncccc23)cc(OCC)c1OCC` the inhibition was -20.6% (inactive). For `CCOC(=O)C1CCN(C(=O)c2cn(CCOC)c(=O)c3c2c2ccccc2n3C)CC1`, the inhibition was -1.6% (inactive). For `CCn1c(=O)cc(OCC(=O)NCc2ccco2)c2ccccc21`, the inhibition was -5% (inactive). In the case of `Cc1cc(/C=C2\SC(=Nc3ccc(F)cc3)NC2=O)c(C)n1-c1ccc(S(N)(=O)=O)cc1`, the inhibition is reported as -17.9% (inactive). With `O=C(OCn1ncc(Br)c(Br)c1=O)c1c(F)cccc1F` the inhibition was -3.7% (inactive). For `Cc1c(C(=O)N2CCN(c3ccccc3F)CC2)sc2ncn(CC(=O)N3CCOCC3)c(=O)c12`, the inhibition was -3.2% (inactive). For `C=C(C)c1cccc(C(C)(C)NC(=O)Nc2ncccn2)c1`, the inhibition was 1.8% (inactive). With `O=C1CC(N2CCN(Cc3ccc4c(c3)OCO4)CC2)C(=O)N1c1ccccc1` (configuration not stated) the inhibition was -6.6% (inactive). With `CC(Sc1nc(N)cc(=O)[nH]1)C(=O)NC1CCCCC1` (configuration not stated) the inhibition was 9% (inactive). In the case of `O=[N+]([O-])c1ccc(Sc2nc3ccccc3o2)c([N+](=O)[O-])c1`, the inhibition is reported as 4.3% (inactive). For `COc1cc(NC(=O)c2ccc(COCC(F)(F)F)o2)cc(OC)c1OC`, the inhibition was 5.2% (inactive). With `COc1ccc(-c2n[nH]c(=S)n2C2CCCCC2)cc1` the inhibition was 5.3% (inactive). In the case of `O=S(=O)(C/C(=C/CO)S(=O)(=O)c1ccccc1)c1ccccc1`, the inhibition is reported as -4.1% (inactive). For `Cc1ccc(F)cc1NC(=O)c1ccc2c(c1)OCO2`, the inhibition was -1.6% (inactive). With `COc1ccc(-c2cc(C(F)(F)F)nc(S(=O)(=O)CCC(=O)N3CCOCC3)n2)cc1` the inhibition was 0% (inactive). In the case of `O=c1c2ccccc2nnn1CSc1ncnc2ccccc12`, the inhibition is reported as -4% (inactive). In the case of `O=C(COC(=O)c1ccccc1C(=O)c1ccc(Cl)c([N+](=O)[O-])c1)NC1CCCCCC1`, the inhibition is reported as -8.3% (inactive). In the case of `CC/C(=N\NC(=O)CNC(=O)/C=C/c1ccco1)c1ccccc1`, the inhibition is reported as -9.3% (inactive). In the case of `O=[N+]([O-])c1cnccc1Nc1ccc(F)cc1`, the inhibition is reported as 4.7% (inactive). In the case of `CSc1ccc(CNC2CN3CCC2CC3)cc1` (configuration not stated), the inhibition is reported as 1.5% (inactive). In the case of `O=C(Cn1ncc2c(=O)oc3ccccc3c21)NCCC1=CCCCC1`, the inhibition is reported as -3.1% (inactive). For `COc1ccc(-c2nc(C#N)c(NCCCN(C)C)o2)cc1OC`, the inhibition was 4.5% (inactive).

Same assay, conditions: cell-based imaging, cytoskeleton assembly phenotype, high content; cell count; at 10 µM; stronger effect = lower value
Molecule `CCOc1ccc(C2=Nn3c(nnc3-c3ccccc3OC)SC2)cc1` has a cell count of 36.3%.
